Among the data in patent US11028087B2, “2,6-disubstituted-9-cyclopentyl-9H-purines, use thereof as medicaments, and pharmaceutical compositions” (UNIVERZITA PALACKEHO V OLOMOUCI, priority 2017, dated 2021) are EC50 and IC50 values, retold here.

A word on the EC50: it is the concentration giving half of the maximal effect. For orientation: IC50 means the midpoint of a concentration-inhibition curve.

A value given as a limit tells only on which side of the number the result lay.

The test system of test [1] is EOL-1 (eosinophilic leukaemia, carrying the fusion FIP1L1-PDGFRA). The experiment in a line: Calcein AM cytotoxicity assay. The test is classed as cell-based. To be noted: Homo sapiens, EOL1, 72 h; EOL-1; Calcein AM, three days; read-out: EC50 values (μM) EOL-1. From the text:
(§1) Cytotoxicity of the compounds is the major property determining their anticancer effect in vivo. One of the parameters used, as the basis for cytotoxicity assays, is the integrity of cytoplasmic membrane of viable cells. For example, a microtiter assay, which uses acetomethoxy derivate of calcein (Calcein AM), is widely used for evaluation of cell proliferation and cytotoxicity. This assay is used in drug screening programs and in chemosensitivity testing. Intracellular esterases of viable cells convert calcein AM to green-fluorescent calcein of which signal corresponds to the number of viable cells in the culture.
(§2) We have been using the following cell lines: MV4-11 (acute myeloid leukemia, FLT3-ITD positive), MOLM-13 (acute myeloid leukemia, FLT3-ITD positive), THP-1 (acute myeloid leukemia, wt FLT3), U937 (monocytic leukemia, wt FLT3), EOL-1 (eosinophilic leukaemia, carrying the fusion FIP1L1-PDGFRA), H1703 (non-small cell lung carcinoma, PDGFRA amplification). […] K562 and MCF-7 cell lines were maintained in DMEM supplemented with 10% fetal bovine serum, penicilin (100 U/ml) and streptomycin (100 μg/ml). All cell lines were cultivated at 37° C. in 5% CO2. For cytotoxicity assays, cells were seeded in appropriate densities into 96 well plates and the next day tested compounds were added at various concentrations in triplicates. Three days after drug addition, Calcein AM solution (final concentration 1 μg/ml; Thermo Scientific, USA) was added into each well and incubated for 1 h.

A further test concerns K562. The experiment in a line: Calcein AM cytotoxicity assay. The class given is cell-based. To be noted: Homo sapiens, 72 h; K562; Calcein AM, three days; read-out: EC50 values (μM) K562.
Text: as §1, §2

A further test relates to MCF-7. The experiment in a line: Calcein AM cytotoxicity assay. The settings on record: Homo sapiens, MCF7, 72 h; MCF-7; Calcein AM, three days; read-out: EC50 values (μM) MCF-7. The class given is cell-based.
Text: as §1, §2

In test [2] the test system is MOLM-13 (acute myeloid leukemia, FLT3-ITD positive). Kind of test: Calcein AM cytotoxicity assay. The test is classed as cell-based. The settings on record: Homo sapiens, 72 h; MOLM-13; Calcein AM, three days; read-out: EC50 values (μM) MOLM-13.
Text: as §1, §2

Test [3] deals with MV4-11 (acute myeloid leukemia, FLT3-ITD positive). Kind of test: Calcein AM cytotoxicity assay. The test is classed as cell-based. The settings on record: Homo sapiens, 72 h; MV4-11; Calcein AM, three days after drug addition; read-out: EC50 values (μM) MV4-11.
Text: as §1, §2

Test [4] has as its system THP-1 (acute myeloid leukemia, wt FLT3). Kind of test: Calcein AM cytotoxicity assay. The test is classed as cell-based. The settings on record: Homo sapiens, 72 h; THP-1; Calcein AM, three days; read-out: EC50 values (μM) THP-1.
Text: as §1, §2

In test [5] the test system is U937 (monocytic leukemia, wt FLT3). Kind of test: Calcein AM cytotoxicity assay. The class given is cell-based. To be noted: Homo sapiens, U-937, 72 h; U937; Calcein AM, three days; read-out: EC50 values (μM) U937.
Text: as §1, §2

In test [6] the test system is Kasumi-1 (acute myeloid leukemia, KIT mutation Asn822Lys). The experiment in a line: Calcein AM cytotoxicity assay. The class given is cell-based. The settings on record: Homo sapiens, 72 h; Kasumi-1; Calcein AM, three days; read-out: EC50 values (μM) Kasumi-1.
Text: as §1
We have been using the following cell lines: MV4-11 (acute myeloid leukemia, FLT3-ITD positive), MOLM-13 (acute myeloid leukemia, FLT3-ITD positive), THP-1 (acute myeloid leukemia, wt FLT3), U937 (monocytic leukemia, wt FLT3), EOL-1 (eosinophilic leukaemia, carrying the fusion FIP1L1-PDGFRA), H1703 (non-small cell lung carcinoma, PDGFRA amplification). They were maintained in RPMI-1640 supplemented with 10% fetal bovine serum, penicillin (100 U/ml) and streptomycin (100 μg/ml). Kasumi-1 (acute myeloid leukemia, KIT mutation Asn822Lys) cells were cultivated in RPMI-1640 supplemented with 15% fetal bovine serum, penicillin (100 U/ml) and streptomycin (100 μg/ml). K562 and MCF-7 cell lines were maintained in DMEM supplemented with 10% fetal bovine serum, penicilin (100 U/ml) and streptomycin (100 μg/ml). All cell lines were cultivated at 37° C. in 5% CO2. For cytotoxicity assays, cells were seeded in appropriate densities into 96 well plates and the next day tested compounds were added at various concentrations in triplicates. Three days after drug addition, Calcein AM solution (final concentration 1 μg/ml; Thermo Scientific, USA) was added into each well and incubated for 1 h. After this incubation period, fluorescence of the live cells was measured at 485 nm/538 nm (ex/em) with a Fluoroskan Ascent microplate reader (Labsystems).

The next test concerns the target T1, CDK2/Cyclin E (Homo sapiens, UniProt P24941).
T1 construct: made in house; host or cells: Sf9 insect cells, baculoviral infection
The experiment in a line: Kinase inhibition assay with [γ-33P]ATP. The test is classed as biochemical. The settings on record: histone H1, 15 μM ATP; read-out: IC50 values (μM) CDK2. The protocol: (§3) CDK1/Cyclin B and CDK2/Cyclin E kinases were produced in Sf9 insect cells via baculoviral infection and purified on a NiNTA column (Qiagen). CDK5/p35 and CDK7Cyclin H/MAT1, FLT3 WT, FLT3-ITD and FLT3 D835 were purchased from ProQinase GmbH. The kinase reactions were assayed with 1 mg/mL histone H1 (for CDK1, CDK2 and CDK5), (YSPTSPS)2KK peptide (for CDK7) or AGLT substrate (for FLT3) in the presence of 15/15/0.15/1.5/1 μM ATP (for CDK1/CDK2/CDK5/CDK7/FLT3), 0.05 μCi [γ-^33P]ATP and of the test compound in a final volume of 10 μL, all in a reaction buffer (60 mM HEPES-NaOH, pH 7.5, 3 mM MgCl2, 3 mM MnCl2, 3 μM Na-orthovanadate, 1.2 mM DTT, 2.5 μg/50 μl PEG20,000). The reactions were stopped by adding 5 μL of 3% aq H3PO4. Aliquots were spotted onto P-81 phosphocellulose (Whatman), washed 3× with 0.5% aq H3PO4 and finally air-dried.

Another test addresses T2, FLT3 WT (Homo sapiens, UniProt P36888).
T2 construct: purchased ProQinase GmbH
T2 sequence (P36888 27-993): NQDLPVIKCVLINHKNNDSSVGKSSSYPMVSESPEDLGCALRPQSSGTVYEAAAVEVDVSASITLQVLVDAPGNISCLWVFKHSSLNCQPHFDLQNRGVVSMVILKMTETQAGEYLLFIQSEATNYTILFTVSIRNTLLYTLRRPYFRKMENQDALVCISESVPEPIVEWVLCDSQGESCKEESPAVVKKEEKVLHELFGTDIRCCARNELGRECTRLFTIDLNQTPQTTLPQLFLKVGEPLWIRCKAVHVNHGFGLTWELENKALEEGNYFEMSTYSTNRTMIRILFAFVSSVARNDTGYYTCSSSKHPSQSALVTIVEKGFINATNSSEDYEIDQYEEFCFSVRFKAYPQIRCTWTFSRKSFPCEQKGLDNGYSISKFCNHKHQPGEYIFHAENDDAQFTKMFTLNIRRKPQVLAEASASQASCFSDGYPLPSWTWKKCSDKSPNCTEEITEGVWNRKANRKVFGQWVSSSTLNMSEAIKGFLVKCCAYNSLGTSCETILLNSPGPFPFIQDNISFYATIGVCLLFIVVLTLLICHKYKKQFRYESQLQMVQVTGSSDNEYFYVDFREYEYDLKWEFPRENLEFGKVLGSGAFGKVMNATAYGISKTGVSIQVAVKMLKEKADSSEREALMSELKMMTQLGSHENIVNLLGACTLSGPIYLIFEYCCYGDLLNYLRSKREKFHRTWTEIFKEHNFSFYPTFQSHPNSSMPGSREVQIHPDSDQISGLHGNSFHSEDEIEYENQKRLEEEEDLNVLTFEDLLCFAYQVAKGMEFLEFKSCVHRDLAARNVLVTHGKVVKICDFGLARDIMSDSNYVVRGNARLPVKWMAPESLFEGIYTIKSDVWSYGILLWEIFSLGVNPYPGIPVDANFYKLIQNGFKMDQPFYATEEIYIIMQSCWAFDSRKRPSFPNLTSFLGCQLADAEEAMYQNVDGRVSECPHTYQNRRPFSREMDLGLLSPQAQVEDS
The experiment in a line: Kinase inhibition assay with [γ-33P]ATP. The class given is biochemical. To be noted: AGLT substrate, 1 μM ATP. The protocol: as §3

As to `CN1CCN(c2nc(Nc3ccc(N4CCNCC4)nc3)c3ncn(C4CCCC4)c3n2)CC1` [Compound 58], the EC50 is 0.056 µM in [1]; 0.695 µM with K562; 0.44 µM with MCF-7; 0.017 µM in [2]; 0.017 µM in test [3]; 1.13 µM in [4]. Besides, the values for the EC50 in [5] and in test [6] were 0.794 µM and 0.492 µM, respectively.
For `c1cc(Nc2nc(N3CCCCC3)nc3c2ncn3C2CCCC2)ccc1CN1CCOCC1` [Compound 271], the EC50 in test [1] was 1.37 µM; in the test with K562 it was 8.28 µM; in the test with MCF-7, 12.3 µM; in [2], 0.431 µM; in test [3] it was 0.701 µM; in [4], greater than 10 µM. For the same molecule, the EC50 was 7.62 µM in [5] and 2.16 µM in [6]. Besides, the values for the IC50 at CDK2/Cyclin E and at FLT3 WT were 1.98 µM and 0.073 µM, respectively.
In the case of `OCCNc1nc(Nc2ccc(CN3CCOCC3)cc2)c2ncn(C3CCCC3)c2n1` [Compound 274], the results for the EC50 in test [1] and in [3] were 0.503 µM and 0.074 µM, respectively. The IC50 at CDK2/Cyclin E was determined as 1.17 µM.
`OCCCCNc1nc(Nc2ccc(CN3CCOCC3)cc2)c2ncn(C3CCCC3)c2n1` [Compound 276]: the EC50 in [3] was 0.029 µM. On CDK2/Cyclin E, the IC50 was determined as 1.8 µM.
Turning to `CN(C)CCCCNc1nc(Nc2ccc(C(=O)N3CCN(C)CC3)nc2)c2ncn(C3CCCC3)c2n1` [Compound 185], the IC50 was 0.003 µM on CDK2/Cyclin E and 0.02 µM against FLT3 WT.
Consider `NC1CCC(Nc2nc(Nc3ccc(N4CCOCC4)nc3)c3ncn(C4CCCC4)c3n2)CC1` (stereo not drawn) [Compound 269], for which the EC50 in [1] was 0.01 µM; in the test on K562, 1.35 µM; in the test with MCF-7, 0.96 µM; in test [3] it was 0.004 µM; in test [5], 1.49 µM. Moreover, at CDK2/Cyclin E, the IC50 was 0.008 µM.
For the molecule `CN1CC2(C1)CN(Cc1ccc(Nc3nc(NCC(O)CN)nc4c3ncn4C3CCCC3)cc1)C2` (stereo not drawn) [Compound 199], the EC50 in the test with K562 was 1.36 µM; in the test with MCF-7, 0.67 µM; in [2], 0.043 µM; in test [3], 0.011 µM; in test [4] it was 0.925 µM; in test [5], 1 µM. The EC50 in test [6] was 0.227 µM. For the same molecule, the values for the IC50 at CDK2/Cyclin E and against FLT3 WT were 0.005 µM and 0.013 µM, respectively.
`CN(C)CCCNc1nc(Nc2ccc(N3CCN(C)CC3)cc2)c2ncn(C3CCCC3)c2n1` [Compound 174]: at CDK2/Cyclin E, the IC50 was found to be 16.4 µM.
With `CCN1CCN(C(=O)c2ccc(Nc3nc(N4CCN(C)CC4)nc4c3ncn4C3CCCC3)cn2)CC1` [Compound 60], the IC50 at CDK2/Cyclin E was found to be 0.028 µM; on FLT3 WT it was 0.021 µM.
On to `OCCCNc1nc(Nc2ccc(CN3CCOCC3)cc2)c2ncn(C3CCCC3)c2n1` [Compound 275], for which the figures for the EC50 in test [1] and in test [3] were 0.73 µM and 0.066 µM, respectively. The IC50 at CDK2/Cyclin E turned out to be 3.01 µM.
As for `CN(C)CCCCNc1nc(Nc2ccc(N3CCOCC3)nc2)c2ncn(C3CCCC3)c2n1` [Compound 183], the EC50 is 0.014 µM in test [1]; 0.98 µM in the test on K562; 0.665 µM in the test on MCF-7; 0.005 µM in test [2]; 0.0005 µM in test [3]; 0.36 µM in test [4]. In addition, the EC50 in [5] is 0.4 µM; in test [6], 0.183 µM.
Take `NC(=O)CCCCNc1nc(Nc2ccc(N3CC4(CNC4)C3)cc2)c2ncn(C3CCCC3)c2n1` [Compound 156]: the EC50 in the test with K562 is 0.84 µM; with MCF-7, 0.697 µM; in test [3], 0.001 µM. For the same molecule, on CDK2/Cyclin E, the IC50 amounted to 0.006 µM.
As for `CCN1CCN(C(=O)c2ccc(Nc3nc(NCCCC(N)=O)nc4c3ncn4C3CCCC3)cn2)CC1` [Compound 155], the EC50 is 5.17 µM in the test with K562, 4.71 µM in the test with MCF-7 and 0.164 µM in test [3]. Also, the IC50 at CDK2/Cyclin E is 2.6 µM.
As for `c1cc(N2CCOCC2)ncc1Nc1nc(N2CCOCC2)nc2c1ncn2C1CCCC1` [Compound 46], the EC50 in [1] is 0.377 µM; in [3], 0.02 µM. The IC50 on CDK2/Cyclin E stood at 0.951 µM.
As to `NC(=O)CCNc1nc(Nc2ccc(C(=O)N3CCOCC3)nc2)c2ncn(C3CCCC3)c2n1` [Compound 149], the EC50 in the test on K562 is 1.17 µM; in the test on MCF-7 it was 0.688 µM; in test [3], 0.007 µM; in test [6] it was 1.01 µM.
